From patent publication US20250295815A1, “PORPHYRIN-HYDROPORPHYRIN COMPOUNDS, COMPOSITIONS COMPRISING THE SAME AND METHODS OF USE THEREOF” (North Carolina State University, priority 2021, published 2025)

Legend:
Format in all cases: physicochemical
[1] = Dyad photophysical properties in toluene, excited at 405 nm; set-up: ext coeff (abs max B) / brightness (abs max): unit not given here
Description: The photophysical properties of samples were tested in toluene at room temperature and excited at 405 nm.

[2] = Brightness of hydroporphyrin monomers vs. porphyrin-hydroporphyrin dyads at 405 nm excitation
Description: Brightness was calculated using an excitation wavelength of 405 nm for a hydroporphyrin monomer having an emission wavelength of approximately 660, 680, 715, or 800 nm and for a fluorescent compound including a porphyrin and a hydroporphyrin structurally similar to the hydroporphyrin monomer. Brightness was calculated as the product of the molar absorption coefficient at 405 nm and the fluorescence quantum yield in toluene at room temperature. Table 3 provides the emission wavelength of the hydroporphyrin monomer and the corresponding dyad, the brightness of the hydroporphyrin monomer excited at 405 nm, the brightness of the dyad excited at 405 nm, and the fold change in brightness of the hydroporphyrin monomer compared to the brightness of the dyad.

[3] = Fluorescence emission spectra in toluene (FIG. 5-8); settings: FIG. 8, 0.5 uM solutions in toluene; meso vs. beta linkage; in M⁻¹cm⁻¹
Description: Emission spectra were collected in toluene at room temperature. […] P5-C3 contains a more rigid linker between chlorin and porphyrin than in P3-C1, which results in greater spatial separation of the two components and lower energy transfer.
Brightness (molar absorption coefficient×fluorescence quantum yield): 84,700 (P3-C1), 13,900 (P5-C3).
Emission spectra were collected using 0.5 uM solutions in toluene. Brightness (molar absorption coefficient×fluorescence quantum yield): 19,900 (P11-BC3 meso), 45,100 (P11-BC1 beta).

Structure (SMILES): COc1c2nc(cc3ccc([nH]3)c(-c3ccc(-c4c5nc(cc6ccc(cc7nc(cc8ccc4[nH]8)C=C7)[nH]6)C=C5)cc3)c3nc(cc4ccc1[nH]4)C(C)(C)C3)C(C)(C)C2 [Dyad P11-BC3]
- ext coeff (405 nm) ([1]; at 405 nm, room temperature, in M-1 cm-1 (unit assumed)): 118,100
- FWHM ([1]; emission peak, room temperature, excited at 405 nm): 15 nm
- QY (x405) ([1]; fluorescence quantum yield, excited at 405 nm, room temperature): 0.17
- brightness (405 nm) ([1]; molar absorption coefficient x fluorescence quantum yield, at 405 nm, in M⁻¹cm⁻¹): 19,871
- brightness (abs max) ([1]; molar absorption coefficient x fluorescence quantum yield, at abs max): 20,998
- abs max B ([1]; room temperature): 407 nm
- abs max Qx ([1]; room temperature): 511 nm
- abs max Qy ([1]; room temperature): 714 nm
- ext coeff (abs max B) ([1]; room temperature): 124,800
- em max ([1]; room temperature, excited at 405 nm): 714 nm
- fold change ([2]; brightness of dyad vs. corresponding hydroporphyrin monomer, 405 nm): 64.9
- FWHM ([2]; emission peak narrowness): 15 nm
- QY (x405) ([2]; fluorescence quantum yield in toluene at room temperature): 0.17
- ext coeff (405 nm) ([2]; molar absorption coefficient at 405 nm, in M-1 cm-1 (unit assumed)): 118,100
- brightness (405 nm) ([2]; product of molar absorption coefficient at 405 nm and fluorescence quantum yield, toluene, room temperature, in M⁻¹cm⁻¹): 19,871
- abs max B ([2]; toluene, room temperature): 407 nm
- em max ([2]; toluene, room temperature): 714 nm
- Brightness (molar absorption coefficient×fluorescence quantum yield) [3]: 19,900
